The subject of experiment [1] is spindle assembly checkpoint. The experiment is described as follows: SAC-Formation - Paclitaxel-Induced Assay. In kind it is cell-based. The settings on record: Homo sapiens; HeLa cells, paclitaxel 0.05 μM, 24 h, phosphorylated histone H3 on serine 10. From the text:
The spindle assembly checkpoint assures the proper segregation of chromosomes during mitosis. Upon entry into mitosis, chromosomes begin to condensate which is accompanied by the phosphorylation of histone H3 on serine 10. Dephosphorylation of histone H3 on serine 10 begins in anaphase and ends at early telophase. Accordingly, phosphorylation of histone H3 on serine 10 can be utilized as a marker of cells in mitosis. Nocodazole is a microtubule destabilizing substance. Paclitaxel is a microtubule stabilizing compound. Thus, nocodazole as well as paclitaxel interfere with microtubule dynamics and mobilize the spindle assembly checkpoint. […] The mitotic breakthrough can be detected by the decrease of cells with phosphorylation of histone H3 on serine 10. This decline is used as a marker to determine the capability of compounds of the present invention to induce a mitotic breakthrough. The typical morphological alteration of nuclei with a prematurely completed mitosis after SAC-inhibition can be monitored via image analysis routines supporting those findings.
The nocodazole and paclitaxel variations were used to focus on compounds that are capable of inhibiting a SAC induced by both microtubule destabilization as well as microtubule stabilization. When SAC inducing agents and compounds are given simultaneously, inhibitors that effectively block the SAC during formation or abrogation are identified. When cells are incubated with a SAC inducing agent and the SAC interfering compound is given after a defined time, inhibitors are identified that effectively block SAC abrogation.
Cultivated cells of the human cervical tumor cell line HeLa (ATCC CCL-2) were plated at a density of 1000 cells/well in a 1536-well microtiter plate in 2 μl PAA Ham's F12 Medium supplemented with 1% (v/v) glutamine, 1% (v/v) penicillin, 1% (v/v) streptomycin and 10% (v/v) fetal calf serum. After incubation overnight at 37° C., 10 μl/well paclitaxel at a final concentration of 0.05 μM were added to cells. Test compounds solubilized in dimethyl sulfoxide (DMSO) were added at various concentrations (0 μM, as well as in the range of 0.005 μM-20 μM; the final concentration of the solvent DMSO was 0.5% (v/v)). Cells were incubated for 24 h at 37° C. in the presence of test compounds in combination with paclitaxel. Thereafter, cells were fixed in 4% (v/v) paraformaldehyde in phosphate buffered saline (PBS) at 4° C. overnight then permeabilized in 0.1% (v/v) Triton X™ 100 in PBS at room temperature for 20 min and blocked in 0.5% (v/v) bovine serum albumin (BSA) in PBS at room temperature for 15 min. After washing with PBS, 5 μl/well antibody solution (anti-phospho-histone H3 clone 3H10, FITC; Millipore, Cat #16-222; 1:1000 dilution) was added to cells, which were incubated for 2 h at room temperature. Afterwards, cells were washed with PBS and 5 μl/well solution of HOECHST 33342 dye (5 μg/ml) was added to cells and cells were incubated 15 min at room temperature in the dark. Cells were washed twice with PBS then covered with PBS and stored at 4° C. until analysis. Images were acquired with a PERKIN ELMER OPERA™ High-Content Analysis reader. Images were analyzed with image analysis software MetaXpress™ from Molecular devices utilizing the Mitotic Index application module. In this assay both labels HOECHST 33342 and phosphorylated Histone H3 on serine 10 were measured. HOECHST 33342 labels the DNA and is used to count the cell number. The staining of phosphorylated Histone H3 on serine 10 determines the number of mitotic cells. […] Otherwise cells were arrested at G2/M phase of the cell cycle progression. The raw assay data were further analyzed by four-parametric hill equation using Genedata's Assay Analyzer and Condoseo software.

Another experiment concerns the target human Bub1 (Homo sapiens (Human), UniProt O43683). The experiment is described as follows: Bub1 kinase assay (TR-FRET). In kind it is biochemical. The settings on record: 10 μM ATP; read-out: Bub1 avg (IC50 [mol/l]). From the text:
Bub1-inhibitory activity of compounds of the present invention was quantified employing the Bub1 TR-FRET assay as described in the following paragraphs.
N-terminally His6-tagged recombinant catalytic domain of human Bub1 (amino acids 704-1085), expressed in insect cells (Hi5) and purified by Ni-NTA affinity chromatography and subsequent size exclusion chromatography, was used as enzyme. As substrate for the kinase reaction the biotinylated peptide biotin-Ahx-VLLPKKSFAEPG (C-terminus in amid form) was used which can be purchased e.g. form the company Biosyntan (Berlin, Germany).
For the assay 50 nl of a 100 fold concentrated solution of the test compound in DMSO was pipetted into a black low volume 384 well microtiter plate (Greiner Bio-One, Frickenhausen, Germany), 2 μl of a solution of Bub1 in aqueous assay buffer [50 mM Tris/HCl pH 7.5, 10 mM magnesium chloride (MgCl2), 200 mM potassium chloride (KCl), 1.0 mM dithiothreitol (DTT), 0.1 mM sodium ortho-vanadate, 1% (v/v) glycerol, 0.01% (w/v) bovine serum albumine (BSA), 0.005% (v/v) Trition X-100 (Sigma), 1× Complete EDTA-free protease inhibitor mixture (Roche)] were added and the mixture was incubated for 15 min at 22° C. to allow pre-binding of the test compounds to the enzyme before the start of the kinase reaction. Then the kinase reaction was started by the addition of 3 μl of a solution of adenosine-tri-phosphate (ATP, 16.7 μM=>final conc. in the 5 μl assay volume is 10 μM) and substrate (1.67 μM=>final conc. in the 5 μl assay volume is 1 μM) in assay buffer and the resulting mixture was incubated for a reaction time of 60 min at 22° C. The concentration of Bub1 was adjusted depending of the activity of the enzyme lot and was chosen appropriate to have the assay in the linear range, typical concentrations were in the range of 200 ng/ml. The reaction was stopped by the addition of 5 μl of a solution of TR-FRET detection reagents (0.2 μM streptavidine-XL665 [Cisbio Bioassays, Codolet, France] and 1 nM anti-phosho-Serine antibody [Merck Millipore, cat. #35-001] and 0.4 nM LANCE EU-W1024 labeled anti-mouse IgG antibody [Perkin-Elmer, product no. AD0077, as an alternative a Terbium-cryptate-labeled anti-mouse IgG antibody from Cisbio Bioassays can be used]) in an aqueous EDTA-solution (50 mM EDTA, 0.2% (w/v) bovine serum albumin in 100 mM HEPES pH 7.5).
The resulting mixture was incubated 1 h at 22° C. to allow the formation of complex between the phosphorylated biotinylated peptide and the detection reagents. Subsequently the amount of phosphorylated substrate was evaluated by measurement of the resonance energy transfer from the Eu-chelate to the streptavidine-XL. Therefore, the fluorescence emissions at 620 nm and 665 nm after excitation at 350 nm was measured in a TR-FRET reader, e.g. a Rubystar or Pherastar (both from BMG Labtechnologies, Offenburg, Germany) or a Viewlux (Perkin-Elmer). The ratio of the emissions at 665 nm and at […] was taken as the measure for the amount of phosphorylated substrate. The data were normalised (enzyme reaction without inhibitor=0% inhibition, all other assay components but no enzyme=100% inhibition).

A value given as a limit tells only on which side of the number the result lay.

human Bub1, sequence (O43683 704-1085): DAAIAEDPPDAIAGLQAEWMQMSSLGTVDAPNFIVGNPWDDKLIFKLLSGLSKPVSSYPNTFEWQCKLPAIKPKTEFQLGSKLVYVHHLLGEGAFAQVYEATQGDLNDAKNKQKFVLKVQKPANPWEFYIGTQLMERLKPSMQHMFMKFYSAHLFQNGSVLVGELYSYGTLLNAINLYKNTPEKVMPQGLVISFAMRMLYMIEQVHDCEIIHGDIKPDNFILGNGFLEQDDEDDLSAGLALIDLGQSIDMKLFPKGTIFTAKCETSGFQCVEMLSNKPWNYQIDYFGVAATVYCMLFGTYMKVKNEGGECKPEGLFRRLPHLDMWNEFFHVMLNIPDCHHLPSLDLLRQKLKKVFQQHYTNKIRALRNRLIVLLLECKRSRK

Regarding `CCc1ccnc(Nc2snc(C)c2C(=O)Nc2ccccc2CC)n1` [Example 17, N-(2-Ethylphenyl)-5-[(4-ethylpyrimidin-2-yl)amino]-3-methyl-1,2-thiazole-4-carboxamide], the figures for the IC50 (in experiment [1]; on human Bub1) were 19 µM and above 20 µM, respectively.

As to `CCc1ccccc1NC(=O)c1c(C)nsc1Nc1nccnc1C#N` [Example 34, 5-[(3-Cyanopyrazin-2-yl)amino]-N-(2-ethylphenyl)-3-methyl-1,2-thiazole-4-carboxamide], the IC50 was 1.6 µM in experiment [1] and above 20 µM on human Bub1.

As for `COc1ncc(NC(=O)c2c(C)nsc2Nc2ccc(C#N)cn2)cc1C` [Example 120, 5-[(5-Cyanopyridin-2-yl)amino]-N-(6-methoxy-5-methylpyridin-3-yl)-3-methyl-1,2-thiazole-4-carboxamide], the IC50 in experiment [1] is 1.2 µM; on human Bub1, above 20 µM.

Consider `Cc1nsc(Nc2ccc(C#N)cn2)c1C(=O)Nc1ccc(OC(C)C)nc1` [Example 110, 5-[(5-Cyanopyridin-2-yl)amino]-N-(6-isopropoxyridin-3-yl)-3-methyl-1,2-thiazole-4-carboxamide], for which the IC50 in experiment [1] is 3.8 µM; at human Bub1, above 20 µM.

Regarding `COC(=O)c1cnc(Nc2snc(C)c2C(=O)Nc2ccc(F)c(F)c2)o1` [Example 97, Methyl 2-({4-[(3,4-difluoro-phenyl)carbamoyl]-3-methyl-1,2-thiazol-5-yl}amino)-1,3-oxazole-5-carboxylate], the results for the IC50 (in experiment [1]; on human Bub1) were 8.1 µM and above 20 µM, respectively.

As to `CCc1ccccc1NC(=O)c1c(C)nsc1Nc1ccnc(C#N)n1` [Example 6, 5-[(2-Cyanopyrimidin-4-yl)amino]-N-(2-ethylphenyl)-3-methyl-1,2-thiazole-4-carboxamide], the IC50 in experiment [1] is 1.2 µM; at human Bub1, above 20 µM.

As to `COc1ccc(NC(=O)c2c(C)nsc2Nc2cnc3cc(C(F)(F)F)ccc3n2)cn1` [Example 45, N-(6-Methoxypyridin-3-yl)-3-methyl-5-{[6-(trifluoromethyl)quinoxalin-2-yl]amino}-1,2-thiazole-4-carboxamide], the IC50 in experiment [1] is 0.14 µM; on human Bub1 it was above 20 µM.

For the molecule `CCOC(=O)c1coc(Nc2snc(C)c2C(=O)Nc2ccc(OC)nc2)n1` [Example 100, Ethyl 2-({4-[(6-methoxypyridin-3-yl)carbamoyl]-3 methyl-1,2-thiazol-5-yl}amino)-1,3-oxazole-4-carboxylate], the IC50 in experiment [1] was 3.4 µM; on human Bub1, above 20 µM.

Consider `CCOC(=O)c1cnc(Nc2snc(C)c2C(=O)Nc2ccc(OC)nc2)s1` [Example 29, Ethyl 2-({4-[(6-methoxypyridin-3-yl)carbamoyl]-3-methyl-1,2-thiazol-5-yl}amino)-1,3-thiazole-5-carboxylate], for which the IC50 in experiment [1] was 0.7 µM; on human Bub1 it was above 20 µM.

On to `Cc1nsc(Nc2cnc3ccccc3n2)c1C(=O)Nc1ccc(OC2CCCCC2)nc1` [Example 115, N-[6-(Cyclohexyloxy)pyridin-3-yl]-3-methyl-5-(quinoxalin-2-ylamino)-1,2-thiazole-4-carboxamide], for which the IC50 is 0.12 µM in experiment [1] and above 20 µM at human Bub1.

In the case of `Cc1nsc(Nc2cnc3cc(F)ccc3n2)c1C(=O)Nc1ccc(F)c(F)c1` [Example 46, N-(3,4-Difluorophenyl)-5-[(6-fluoroquinoxalin-2-yl)amino]-3-methyl-1,2-thiazole-4-carboxamide], the IC50 in experiment [1] was 0.034 µM; at human Bub1 it was above 20 µM.

Turning to `CCc1ccccc1NC(=O)c1c(C)nsc1Nc1cc(NC)ncn1` [Example 15, N-(2-Ethylphenyl)-3-methyl-5-{[6-(methylamino)pyrimidin-4-yl]amino}-1,2-thiazole-4-carboxamide], the IC50 (in experiment [1]; at human Bub1) was above 20 µM in each case.

Regarding `COc1ccc(NC(=O)c2c(C)nsc2Nc2cnc3cc(Cl)ccc3n2)cn1` [Example 23, 5-[(6-Chloroquinoxalin-2-yl)amino]-N-(6-methoxypyridin-3-yl)-3-methyl-1,2-thiazole-4-carboxamide], the IC50 is 0.5 µM in experiment [1] and above 20 µM at human Bub1.

Consider `CCOC(=O)c1sc(Nc2snc(C)c2C(=O)Nc2ccc(OC)nc2)nc1C` [Example 30, Ethyl 2-({4-[(6-methoxypyridin-3-yl)carbamoyl]-3-methyl-1,2-thiazol-5-yl}amino)-4-methyl-1,3-thiazole-5-carboxylate], for which the results for the IC50 (in experiment [1]; at human Bub1) were 0.32 µM and above 20 µM, respectively.

For the molecule `COc1ccc(NC(=O)c2c(C)nsc2Nc2nccnc2C#N)cn1` [Example 24, 5-[(3-Cyanopyrazin-2-yl)amino]-N-(6-methoxypyridin-3-yl)-3-methyl-1,2-thiazole-4-carboxamide], the IC50 in experiment [1] turned out to be 8.5 µM; on human Bub1, 3.1 µM.

Regarding `Cc1nsc(Nc2ncc(C(=O)N(C)C)s2)c1C(=O)Nc1ccc(F)c(F)c1` [Example 49, N-(3,4-Difluorophenyl)-5-{[5-(dimethylcarbamoyl)-1,3-thiazol-2-yl]amino}-3-methyl-1,2-thiazole-4-carboxamide], the IC50 in experiment [1] is 0.96 µM; at human Bub1, above 20 µM.

`CCc1ccccc1NC(=O)c1c(C)nsc1Nc1cc(C(F)(F)F)ccn1` [Example 18, N-(2-Ethylphenyl)-3-methyl-5-{[4-(trifluoromethyl)pyridin-2-yl]amino}-1,2-thiazole-4-carboxamide]: the results for the IC50 (in experiment [1]; at human Bub1) were 2 µM and above 20 µM, respectively.

Values taken from patent US9682995B2, “Amino-substituted isothiazoles” (BAYER PHARMA AKTIENGESELLSCHAFT, priority 2013, dated 2017).
